Assay results taken from patent US10160867B2, “Benzoxaborole-containing coating resistant to cellulose-supportable fungus” (THE PENN STATE RESEARCH FOUNDATION, priority 2015, dated 2018).
In brackets after ≈: the same amount, converted by molar mass.

Tests used:
Alternaria alternata = test: Painted discs with or without UV irradiation before inoculation (defacement); assay type: cell-based; parameters: key: rating 10 = 0% defacement to 0 = 91-100% defacement; conditions: +100 μg/mL in Olympic Home latex paint
Description: In a separate study, painted filter paper discs were irradiated with UV light from a 30 watt bulb for 2 hours and then inoculated with Alternaria alternata spores (“+UV” in the table below), or were inoculated without prior UV irradiation (“no UV” in the Table 4). The painted filter papers were incubated as discussed elsewhere herein, evaluated at 13 and 21 days post-inoculation for defacement by fungal growth and compared to similar painted filter paper discs that were not irradiated prior to inoculation.
Samples were evaluated at regular intervals. The intensity of the fungal growth was rated by estimating the percentage of surface defacement using the following ratings: 10: 0% defacement; 9=1-10% defacement; 8=11-20% defacement; 7=21-30% defacement; 6=31-40% defacement; 5=41-50% defacement; 4=51-60% defacement; 3=61-70% defacement; 2=71-80% defacement; 1=81-90% defacement; and 0=91-100% defacement. A grid that divides the circular area into 20 equal sections as shown in FIG. 1 was used to estimate the extent (percent defacement) of fungal growth.

[1] = +UV (30 watt bulb, 2 hours, before inoculation), 13 days
[2] = +UV (30 watt bulb, 2 hours, before inoculation), 21 days

SMILES | Average Defacement ± standard deviation for 3 replicates (Alternaria alternata; [1]) | Average Defacement ± standard deviation for 3 replicates (Alternaria alternata; [2]) | Average Defacement ± standard deviation for 3 replicates (Alternaria alternata; no UV, 13 days) | Average Defacement ± standard deviation for 3 replicates (Alternaria alternata; no UV, 21 days) | solubility (Solubility in water)
OB1OCc2cc(F)ccc21 [Compound B9, 5-Fluoro-1,3-dihydro-2,1-benzoxaborol-1-ol] | 10.0 ± 0.0 | 8.3 ± 2.1 | 10.0 ± 0.0 | 9.0 ± 0.0 | 0.8 mg/mL (≈ 5.27 mM)
CCCCNC(=O)OCC#CI [IPBC, 3-Iodo-2-propynylbutylcarbamate] | 9.7 ± 0.6 | 6.0 ± 4.4 | 8.3 ± 2.1 | 4.0 ± 4.0 | –
